The source of these data is ChEMBL document CHEMBL1201862, “PubChem BioAssay data set” (2004).

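48-hour exposure; five concentrations; linearly interpolated endpoints. GI50 is the concentration that inhibits growth by half.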 Active and inactive are the calls of the source. No stated cut-off is given here; in the data, active = GI50 up to about 1.1 µM and inactive = higher.

Among the test systems are M19-MEL; SNB-78; XF498; RXF 631; DLD-1; DMS-114; DMS-273; KM-20L2; MDA-N.
Holding throughout (experiment): NCI tumour cell line growth inhibition, 48 h

As to `CCCN(CCCCC(NC(C)=O)C(=O)NCc1ccccc1)C(=O)NC` (stereo not drawn), the GI50 in the assay on M19-MEL, with SNB-78, with XF498, in the assay with RXF 631, in the assay on DLD-1 and in the assay with DMS-114 was > 100 µM (inactive) in each case. The GI50 in the assay with DMS-273 and with KM-20L2 was > 100 µM (inactive) each time.

As for `Oc1cc(-n2cccn2)c(O)cc1-n1cccn1`, the GI50 in the assay on M19-MEL was 23.7 µM (inactive); in the assay with SNB-78, 34.8 µM (inactive); in the assay with XF498, 16.3 µM (inactive); in the assay on MDA-N it was 17.6 µM (inactive); with RXF 631, > 60.8 µM (inactive); with DLD-1, 32.6 µM (inactive). Further, the figures for the GI50 in the assay on DMS-114, in the assay on DMS-273 and with KM-20L2 were 26.4 µM (inactive), 41.3 µM (inactive) and > 85.7 µM (inactive), respectively.

In the case of `CN(C)CCCNc1ccc2nnn3c4ccc([N+](=O)[O-])cc4c(=O)c1c23`, the GI50 in the assay on M19-MEL is 3.65 µM (inactive); in the assay on SNB-78, 2.08 µM (inactive); with XF498 it was 1.5 µM (inactive); in the assay with MDA-N, 2.09 µM (inactive); in the assay on RXF 631 it was 0.723 µM (active); in the assay with DLD-1, 0.931 µM (active). The figures for the GI50 with DMS-114, with DMS-273 and with KM-20L2 were 1.89 µM (inactive), 0.685 µM (active) and 0.745 µM (active), respectively.

With `NNC(=O)N/N=C(/CC1(O)C(=O)Nc2ccc(Br)cc21)c1ccccc1` (stereo not drawn), the GI50 with M19-MEL is 32.4 µM (inactive); in the assay on SNB-78, 34.5 µM (inactive); with XF498 it was 18.9 µM (inactive); in the assay with RXF 631, 38.6 µM (inactive); with DLD-1, 35.9 µM (inactive); in the assay with DMS-273 it was 28.4 µM (inactive). Also, the GI50 in the assay with KM-20L2 was 27.9 µM (inactive).

Regarding `CC1(C)OC(=O)C(c2ccsc2)C(=O)O1`, the GI50 with M19-MEL, with SNB-78, in the assay on XF498, in the assay on RXF 631, in the assay on DLD-1 and in the assay on DMS-114 was > 100 µM (inactive) in each case. Further, the GI50 with DMS-273 and in the assay with KM-20L2 was > 100 µM (inactive) throughout.

`O=C(CC(=O)c1ccc([N+](=O)[O-])cc1)C(=O)Nc1nccs1`: the GI50 in the assay on SNB-78 is > 100 µM (inactive); in the assay with XF498, > 100 µM (inactive); with RXF 631, > 100 µM (inactive); with DLD-1, > 100 µM (inactive); in the assay on DMS-114, > 40.5 µM (inactive); in the assay on DMS-273 it was > 100 µM (inactive). In the assay with KM-20L2, the GI50 is > 100 µM (inactive).

`CC(=O)/C=C\C(=O)NNS(=O)(=O)c1ccc(C)cc1`: the GI50 in the assay on M19-MEL, in the assay on SNB-78, with XF498, with RXF 631, in the assay on DLD-1 and with DMS-273 was > 100 µM (inactive) each time. For the same molecule, the GI50 in the assay with KM-20L2 was > 100 µM (inactive).

As for `Cc1c(N)nc(C(CC(N)=O)NCC(N)C(N)=O)nc1C(=O)NC(C(=O)NC(C)C(O)C(C)C(=O)NC(C(=O)NCCc1nc(-c2nc(C(=O)NCCCNCCCCN)cs2)cs1)C(C)O)C(OC1OC(CO)C(O)C(O)C1OC1OC(CO)C(O)C(OC(N)=O)C1O)c1c[nH]cn1` (stereo not drawn), the GI50 in the assay on M19-MEL is > 10 µM (inactive); in the assay with SNB-78 it was > 10 µM (inactive); in the assay with XF498, 0.0413 µM (active); in the assay on RXF 631, 0.0274 µM (active); in the assay on DLD-1 it was > 10 µM (inactive); with DMS-114 it was 1.85 µM (inactive). Besides, the GI50 in the assay on DMS-273 was 0.957 µM (active); in the assay on KM-20L2, > 10 µM (inactive).
